Patent publication US11040984B2, “Quinazoline compound for EGFR inhibition” (MEDSHINE DISCOVERY INC., priority 2016, dated 2021)
Structures can show the parent of a compound that is named as a salt.

How the values were obtained:
PC-9 (Δ19del) cells = assay: Anti-PC-9 cell proliferation (Cell-Titer Glo, 72 hours); type: cell-based; conditions: Homo sapiens, PC-9 cells, read-out: Anti-PC-9 (Δ19del) cell proliferative activity IC50
Protocol: RPMI 1640 medium, FBS fetal bovine serum and trypsin-EDTA were purchased from Giboco. DPBS was purchased from Corning, penicillin/streptomycin solution from Hyclone, Cell-Titer Glo reagent from Promega (1 kit, Cat. No. G7571). PC-9 was built by WuXi itself. Plate reader: Envision (Perkin Elmer).
(§1) 45 μL Culture media was added to columns 1, 2, 24 of a 384-well plate, repectively. The cell suspension was separated by Multi-drop, 45 μL (1000 cells) per well, which was placed and cultured in an incubator overnight. A compound was added to the source plate according to the requirement of Echo liquid-separation. The compound in the source plate was added to the interplate and diluted to an intermediate concentration, then the compound in the source plate and the interplate was added to the cell plate, and the cells were further cultured in the incubator for 72 hours. After 72 hours, Cell-Titer Glo reagent and cells were taken out and equilibrated at room temperature for 30 minutes. 25 μL Cell-Titer Glo reagent was separated into the cells in 384-well plate by Multi-drop, shaken at medium speed for 3 minutes, centrifuged at 1000 rpm for 2 minutes, and kept for 10 minutes. Envision was used to read the plate (Luminescence).

EGFR WT = EGFR WT (Homo sapiens (Human), UniProt P00533); assay: Kinase assay (HTRF KinEASE TK), wild-type EGFR enzyme; type: biochemical
Chain of EGFR WT (P00533 25-1210): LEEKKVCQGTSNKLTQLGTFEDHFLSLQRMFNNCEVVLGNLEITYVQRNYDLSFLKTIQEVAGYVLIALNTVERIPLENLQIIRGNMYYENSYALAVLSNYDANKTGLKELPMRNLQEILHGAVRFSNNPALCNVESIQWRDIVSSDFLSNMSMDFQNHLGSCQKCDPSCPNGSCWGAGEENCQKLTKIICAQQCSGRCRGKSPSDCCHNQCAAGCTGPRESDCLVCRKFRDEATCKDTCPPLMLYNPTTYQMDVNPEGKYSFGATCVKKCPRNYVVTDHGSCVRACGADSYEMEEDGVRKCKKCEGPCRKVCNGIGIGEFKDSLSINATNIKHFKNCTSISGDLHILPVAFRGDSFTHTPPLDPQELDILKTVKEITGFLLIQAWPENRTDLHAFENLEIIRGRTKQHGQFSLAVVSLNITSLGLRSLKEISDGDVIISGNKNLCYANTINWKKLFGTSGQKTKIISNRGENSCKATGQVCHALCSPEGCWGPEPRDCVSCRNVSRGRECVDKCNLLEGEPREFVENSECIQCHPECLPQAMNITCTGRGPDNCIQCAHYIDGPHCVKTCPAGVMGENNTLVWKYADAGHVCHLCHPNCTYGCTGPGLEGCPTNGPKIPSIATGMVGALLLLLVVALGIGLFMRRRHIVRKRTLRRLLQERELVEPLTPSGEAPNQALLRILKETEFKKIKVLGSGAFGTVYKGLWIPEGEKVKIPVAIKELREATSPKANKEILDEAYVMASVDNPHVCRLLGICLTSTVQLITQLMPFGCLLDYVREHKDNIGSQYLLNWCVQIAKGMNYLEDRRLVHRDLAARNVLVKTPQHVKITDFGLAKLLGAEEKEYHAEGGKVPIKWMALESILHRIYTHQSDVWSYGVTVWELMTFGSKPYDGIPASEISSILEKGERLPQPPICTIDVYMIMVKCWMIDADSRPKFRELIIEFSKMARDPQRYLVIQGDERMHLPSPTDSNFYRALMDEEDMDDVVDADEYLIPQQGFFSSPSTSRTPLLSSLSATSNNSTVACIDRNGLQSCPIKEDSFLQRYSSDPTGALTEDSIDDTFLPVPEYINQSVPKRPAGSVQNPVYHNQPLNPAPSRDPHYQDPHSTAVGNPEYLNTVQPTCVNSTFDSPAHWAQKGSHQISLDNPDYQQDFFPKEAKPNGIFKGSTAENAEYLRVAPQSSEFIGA
Description: (§2) Detection of inhibitory effects of compounds on enzymatic activities of EGFR WT, EGFR [L858R] and EGFR [d746-750]
(§3) EGFR WT (Invitrogen, Cat. No PR7295B), EGFR [L858R] (Invitrogen, Cat. No PR7447A), EGFR [d746-750](Invitrogen, Cat. No PV6179), ATP (Sigma, Cat. No. A7699-1G), DMSO (Sigma, Cat. No. D2650), DTT (Sigma, Cat. No. 43815), 384-well plates compound dilution plates (Greiner, Cat. No. 781280), 384-well plates_test plates (Perkin Elmer, Cat. No. 6007299), HTRF KinEASE TK Kit (Cisbio, Cat. No. 62TKOPEB), MgCl2 (Sigma, Cat. No. M1028), Orthovanadate (Sigma, Cat. No. S6508), BSA (Sigma, Cat. No. A7030), HEPES (Life technology, Cat. No. 11344-041)
(§4) The final test concentrations of the test compounds ranged from 10 μM to 0.17 nM, with serial 3-fold dilutions and 11 gradient concentrations.
(§5) Buffer formulation: a buffer consisted of 50 mM HEPES (pH 7.5), 0.01% BSA, 5 mM MgCl2, 0.1 mM Orthovanadate. After the buffer was formulated, an enzyme and a substrate were mixed with pre-diluted compounds of varying concentrations, and placed at room temperature for 15 minutes. The reaction was initiated by adding ATP and incubated at room temperature for 60 minutes (wherein negative and positive controls were set up). The 10 μL reaction system consisted of a 2.5 μL compound, a 5 μL mixture of enzyme and substrate, and 2.5 μL ATP. After the reaction was complete, antibodies were added to test, the detection was performed with Evnvision after incubation at room temperature for 60 minutes, and data were collected. Data analysis and simulation were performed using XLfit5 software.

EGFR [d746-750] = EGFR [d746-750] (Homo sapiens (Human), UniProt P00533, DEL746-750); assay: Kinase assay (HTRF KinEASE TK), EGFR exon 19 deletion enzyme; type: biochemical
Chain of EGFR [d746-750] (P00533 other isoform, or with tags, fused parts or gaps del 1-667/del 746-750 limits assumed): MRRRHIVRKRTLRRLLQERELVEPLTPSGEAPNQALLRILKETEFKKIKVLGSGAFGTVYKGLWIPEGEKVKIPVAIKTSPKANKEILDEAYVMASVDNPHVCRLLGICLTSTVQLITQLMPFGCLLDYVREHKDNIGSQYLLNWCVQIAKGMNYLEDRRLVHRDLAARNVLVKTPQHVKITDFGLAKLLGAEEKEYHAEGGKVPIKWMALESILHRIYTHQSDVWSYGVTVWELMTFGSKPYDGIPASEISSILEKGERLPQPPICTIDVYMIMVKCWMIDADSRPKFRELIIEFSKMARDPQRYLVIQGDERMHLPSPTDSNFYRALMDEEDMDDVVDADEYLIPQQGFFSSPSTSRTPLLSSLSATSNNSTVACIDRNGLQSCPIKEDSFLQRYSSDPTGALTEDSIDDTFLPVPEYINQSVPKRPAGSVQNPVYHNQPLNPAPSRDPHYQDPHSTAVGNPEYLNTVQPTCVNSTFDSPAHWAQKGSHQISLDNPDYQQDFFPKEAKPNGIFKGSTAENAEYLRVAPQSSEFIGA
Description: as §2, §3, §4, §5

A431 cells = assay: Anti-A431 cell proliferation; type: cell-based; conditions: Homo sapiens, A-431, read-out: Anti-A431 cell proliferative activity IC50
Protocol: as §1

EGFR [L858R] = EGFR [L858R] (Homo sapiens (Human), UniProt P00533, L858R); assay: Kinase assay (HTRF KinEASE TK), EGFR L858R enzyme; type: biochemical
Chain of EGFR [L858R] (P00533 25-1210 L858R): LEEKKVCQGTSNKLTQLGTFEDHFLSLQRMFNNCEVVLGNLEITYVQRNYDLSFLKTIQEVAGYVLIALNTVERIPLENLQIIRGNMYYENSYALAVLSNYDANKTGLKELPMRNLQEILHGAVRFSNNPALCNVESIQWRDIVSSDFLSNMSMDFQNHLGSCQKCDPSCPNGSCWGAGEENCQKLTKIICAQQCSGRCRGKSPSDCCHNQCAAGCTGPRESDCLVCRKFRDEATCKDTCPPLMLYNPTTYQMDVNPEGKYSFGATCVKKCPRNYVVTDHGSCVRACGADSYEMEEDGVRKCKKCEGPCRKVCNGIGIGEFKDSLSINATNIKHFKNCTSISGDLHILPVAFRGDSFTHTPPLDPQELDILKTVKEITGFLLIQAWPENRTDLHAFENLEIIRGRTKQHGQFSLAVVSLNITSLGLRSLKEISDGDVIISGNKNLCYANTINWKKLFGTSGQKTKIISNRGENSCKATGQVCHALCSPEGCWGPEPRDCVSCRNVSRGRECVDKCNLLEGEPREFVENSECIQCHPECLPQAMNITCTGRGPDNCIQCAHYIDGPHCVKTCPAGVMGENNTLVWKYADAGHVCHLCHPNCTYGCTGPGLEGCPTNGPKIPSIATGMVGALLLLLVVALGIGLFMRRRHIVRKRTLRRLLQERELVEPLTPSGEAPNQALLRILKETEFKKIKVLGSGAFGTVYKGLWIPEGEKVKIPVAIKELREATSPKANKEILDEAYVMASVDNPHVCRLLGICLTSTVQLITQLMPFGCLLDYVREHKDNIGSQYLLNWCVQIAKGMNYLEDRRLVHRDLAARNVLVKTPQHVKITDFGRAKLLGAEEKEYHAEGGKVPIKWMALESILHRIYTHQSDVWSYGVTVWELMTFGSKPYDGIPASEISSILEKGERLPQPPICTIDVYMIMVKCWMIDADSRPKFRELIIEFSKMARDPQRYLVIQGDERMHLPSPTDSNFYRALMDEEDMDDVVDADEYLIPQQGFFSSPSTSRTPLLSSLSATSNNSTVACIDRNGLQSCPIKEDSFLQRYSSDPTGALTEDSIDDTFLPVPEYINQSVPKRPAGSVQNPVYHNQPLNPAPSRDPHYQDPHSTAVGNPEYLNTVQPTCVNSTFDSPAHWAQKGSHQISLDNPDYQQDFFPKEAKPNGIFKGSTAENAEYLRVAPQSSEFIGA
Description: as §2, §3, §4, §5

`COc1cc2ncnc(Oc3cccc(Cl)c3)c2cc1N1CC2(CCN(C)CC2)OC1=O` [Compound 16] showed an IC50 (PC-9 (Δ19del) cells) of 540 nM.
`COc1cc2ncnc(Nc3cccc(Cl)c3F)c2cc1N1C[C@H](CN(C)C)OC1=O` [Compound 18] showed an IC50 (EGFR WT) of under 0.015 nM, an IC50 (EGFR [d746-750]) of 0.05 nM and an IC50 (PC-9 (Δ19del) cells) of 12.5 nM. It also gave an IC50 (A431 cells) of 59 nM.
Work on `COC[C@@H]1CN(c2cc3c(Nc4cccc(Cl)c4F)ncnc3cc2OC)C(=O)O1` [Compound 23] yielded an IC50 (EGFR WT) of 0.038 nM, an IC50 (EGFR [d746-750]) of 0.17 nM and an IC50 (PC-9 (Δ19del) cells) of 24 nM.
`CCN1CC2(C1)CN(c1cc3c(Nc4cccc(Cl)c4F)ncnc3cc1OC)C(=O)O2` [Compound 25] showed an IC50 (EGFR WT) of 0.022 nM, an IC50 (EGFR [d746-750]) of 0.069 nM and an IC50 (PC-9 (Δ19del) cells) of 6.76 nM. The IC50 (A431 cells) was 64 nM.
For `COc1cc2ncnc(Nc3cccc(Cl)c3F)c2cc1N1CC2(CN(C(C)C)C2)OC1=O` [Compound 26], the IC50 (PC-9 (Δ19del) cells) was 7.2 nM and the IC50 (A431 cells) was 98 nM.
With `COc1cc2ncnc(Oc3cccc(Cl)c3)c2cc1N1CC2(CN(C)C2)OC1=O` [Compound 27] the IC50 (PC-9 (Δ19del) cells) was 84 nM.
With `COc1cc2ncnc(Nc3cccc(Cl)c3F)c2cc1N1CC2(CN(CCF)C2)OC1=O` [Compound 29] the IC50 (PC-9 (Δ19del) cells) was 14.7 nM.
`CN1CC2(C1)CN(c1cc3c(Nc4cccc(Cl)c4F)ncnc3cc1OC(F)F)C(=O)O2` [Compound 45] gave an IC50 (PC-9 (Δ19del) cells) of 8.86 nM.
`COc1cc2ncnc(Nc3ccc(F)c(Cl)c3F)c2cc1N1CC2(CN(C)C2)OC1=O` [Compound 49] showed an IC50 (PC-9 (Δ19del) cells) of 4.2 nM.
`COc1cc2ncnc(Nc3ccc(F)c(Cl)c3)c2cc1N1CC2(CCN(C)CC2)OC1=O` [Formate of compound 2] gave an IC50 (EGFR [d746-750]) of 16.5 nM, an IC50 (EGFR [L858R]) of 48.1 nM and an IC50 (PC-9 (Δ19del) cells) of 165 nM.
`COc1cc2ncnc(Nc3cccc(Cl)c3F)c2cc1N1CC2(CCN(C)CC2)OC1=O` [Formate of compound 3] gave an IC50 (EGFR [d746-750]) of 0.02 nM, an IC50 (EGFR [L858R]) of 0.1 nM and an IC50 (PC-9 (Δ19del) cells) of 3 nM. The IC50 (A431 cells) was 96 nM.
`COc1cc2ncnc(Nc3cccc(Cl)c3OC)c2cc1N1CC2(CCN(C)CC2)OC1=O` [Formate of compound 4] showed an IC50 (EGFR [d746-750]) of 55.4 nM, an IC50 (EGFR [L858R]) of 30.1 nM and an IC50 (PC-9 (Δ19del) cells) of 396 nM.
With `COc1cc2ncnc(Nc3cccc(Cl)c3F)c2cc1N1CC2(CCN(C(C)C)CC2)OC1=O` [Formate of compound 5] the IC50 (PC-9 (Δ19del) cells) was 2.73 nM.
`COc1cc2ncnc(Nc3ccc(Cl)c(Cl)c3F)c2cc1N1CC2(CCN(C)CC2)OC1=O` [Formate of compound 6] was tested, and the IC50 (EGFR WT) was under 0.015 nM, the IC50 (EGFR [d746-750]) was 0.07 nM and the IC50 (PC-9 (Δ19del) cells) was 4.9 nM.
`COc1cc2ncnc(Nc3ccc(F)c(Cl)c3F)c2cc1N1CC2(CCN(C)CC2)CC1=O` [Formate of compound 10] gave an IC50 (PC-9 (Δ19del) cells) of 6.01 nM and an IC50 (A431 cells) of 73 nM.
For `CN1CCC2(CC1)CN(c1ccc3ncnc(Nc4cccc(Cl)c4F)c3c1)C(=O)O2` [Formate of compound 12], the IC50 (EGFR WT) was 0.017 nM, the IC50 (EGFR [d746-750]) was 0.085 nM and the IC50 (PC-9 (Δ19del) cells) was 9.11 nM. The IC50 (A431 cells) was 46 nM.
Molecule `COc1cc2ncnc(Nc3cccc(Cl)c3F)c2cc1N1CC2(CN(C)C2)OC1=O` [Formate of compound 13] has an IC50 (EGFR WT) of 0.016 nM, an IC50 (EGFR [d746-750]) of 0.052 nM and an IC50 (PC-9 (Δ19del) cells) of 5.34 nM.
In the case of `COc1cc2ncnc(Nc3cccc(Cl)c3F)c2cc1N1CC2(COC2)OC1=O` [Formate of compound 15], the IC50 (PC-9 (Δ19del) cells) is reported as 23 nM.
In the case of `COc1cc2ncnc(Nc3cccc(Cl)c3F)c2cc1N1C(=O)OC2CN(C)CCC21` (stereo not shown) [Formate of compound 17], the IC50 (PC-9 (Δ19del) cells) is reported as 29.4 nM.
Work on `COc1cc2ncnc(-n3ccc4c(Cl)cccc43)c2cc1N1CC2(CCN(C)CC2)OC1=O` [Formate of compound 19] yielded an IC50 (PC-9 (Δ19del) cells) of 1280 nM.
Molecule `COc1cc2ncnc(Nc3cccc(Cl)c3F)c2cc1N1CC2(CCN(C)CC2C)OC1=O` (stereo not shown) [Formate of compound 20] has an IC50 (PC-9 (Δ19del) cells) of 2.17 nM.
`CCC1CN(C)CCC12CN(c1cc3c(Nc4cccc(Cl)c4F)ncnc3cc1OC)C(=O)O2` (stereo not shown) [Formate of compound 21] gave an IC50 (PC-9 (Δ19del) cells) of 2.96 nM.
In the case of `Cc1cc2ncnc(Nc3cccc(Cl)c3F)c2cc1N1CC2(CCN(C)CC2)OC1=O` [Formate of compound 22], the IC50 (PC-9 (Δ19del) cells) is reported as 41.4 nM.
`COc1cc2ncnc(Nc3c(F)ccc(Cl)c3F)c2cc1N1CC2(CCN(C)CC2)OC1=O` [Formate of compound 24] showed an IC50 (PC-9 (Δ19del) cells) of 7.53 nM.
`COc1cc2ncnc(-c3cn(C)c4ccccc34)c2cc1N1CC2(CN(C)C2)OC1=O` [Formate of compound 28] was tested, and the IC50 (PC-9 (Δ19del) cells) was 250 nM.
Work on `CC(C)N1CC2(CN(c3ccc4ncnc(Nc5cccc(Cl)c5F)c4c3)C(=O)O2)C1` [Formate of compound 33] yielded an IC50 (EGFR WT) of 0.114 nM and an IC50 (EGFR [d746-750]) of 0.29 nM.
In the case of `COc1cc2ncnc(Nc3ccc(Cl)cc3F)c2cc1N1CC2(CN(C)C2)OC1=O` [Formate of compound 46], the IC50 (PC-9 (Δ19del) cells) is reported as 29.8 nM.
Work on `COc1cc2ncnc(Nc3cccc(C)c3F)c2cc1N1CC2(CN(C)C2)OC1=O` [Formate of compound 48] yielded an IC50 (PC-9 (Δ19del) cells) of 8.55 nM.
`CCCN1CC2(C1)CN(c1cc3c(Nc4cccc(Cl)c4F)ncnc3cc1OC)C(=O)O2` [Hydrochloride of compound 30] gave an IC50 (EGFR WT) of 0.021 nM, an IC50 (EGFR [d746-750]) of 0.052 nM and an IC50 (PC-9 (Δ19del) cells) of 11.2 nM. The IC50 (A431 cells) was 71 nM.
`COc1cc2ncnc(Nc3cccc(Cl)c3F)c2cc1N1CC2(CN(C3CC3)C2)OC1=O` [Hydrochloride of compound 31] was tested, and the IC50 (PC-9 (Δ19del) cells) was 15.3 nM.
